Data from publication PMC7990704 (Nature chemical biology, 2021).
Read-outs that look alike come from different tables or passages of the source.

What was measured:
[1] = target: T1, Cdk2 (Homo sapiens, UniProt P24941, A93C/C118A/C177S/R157C); assay type: binding
[2] = target: pCdk4:cyclinD (Homo sapiens, UniProt P11802); assay: γ-33P radioactivity kinase assay with RB as substrate and 10 μM ATP; assay type: biochemical
[3] = system: cells; conditions: cited from earlier work
[4] = target: T1, Cdk2
[5] = system: Cdk2; set-up: species or system Human
[6] = target: Cdk2 (Homo sapiens, UniProt P24941, A93C/C118A/C177S/S46C)

Chain of pCdk4:cyclinD (P11802 whole entry): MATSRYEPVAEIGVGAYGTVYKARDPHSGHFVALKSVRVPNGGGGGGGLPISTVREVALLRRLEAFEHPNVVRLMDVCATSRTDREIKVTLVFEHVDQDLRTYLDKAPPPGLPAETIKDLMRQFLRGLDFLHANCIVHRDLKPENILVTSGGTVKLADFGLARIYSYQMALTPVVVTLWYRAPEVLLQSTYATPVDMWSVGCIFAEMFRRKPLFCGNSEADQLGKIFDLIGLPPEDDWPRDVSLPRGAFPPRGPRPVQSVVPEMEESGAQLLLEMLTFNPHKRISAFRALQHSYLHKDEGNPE
Chain of pCdk4:cyclinD (P24385 whole entry partner): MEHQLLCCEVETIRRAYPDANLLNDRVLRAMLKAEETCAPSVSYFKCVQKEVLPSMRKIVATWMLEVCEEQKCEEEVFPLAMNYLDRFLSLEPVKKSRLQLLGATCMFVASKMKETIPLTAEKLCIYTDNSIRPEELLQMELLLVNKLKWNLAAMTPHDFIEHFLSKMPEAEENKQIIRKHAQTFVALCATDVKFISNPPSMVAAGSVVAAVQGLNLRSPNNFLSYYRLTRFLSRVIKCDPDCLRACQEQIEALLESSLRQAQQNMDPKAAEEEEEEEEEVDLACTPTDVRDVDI

In the case of `CC(=O)c1c(C)c2cnc(Nc3ccc(N4CCNCC4)cn3)nc2n(C2CCCC2)c1=O` [palbociclib], the “effect on the Aloop-in/out equilibrium (FRET)” value ([1]; Fig. 4d) was “did not promote the Aloop-out state” and the “binding cooperativity with cyclin (in words)” value ([1]; Fig. 4d, cyclinA) was “lacked substantial binding cooperativity with cyclin”.

In the case of `CCN1CCN(Cc2ccc(Nc3ncc(F)c(-c4cc(F)c5nc(C)n(C(C)C)c5c4)n3)nc2)CC1` [abemaciclib], the “potency for Cdk4 compared with palbociclib or ribociclib” value [2] is given as “greater potency”, the “Cdk1 substrate phosphorylation in cells” value [3] is given as “blocks Cdk1 substrate phosphorylation” and the “cell cycle effect in cells” value [3] is given as “triggers a G2 arrest”.

For `CN1CC[C@H](c2c(O)cc(O)c3c(=O)cc(-c4ccccc4Cl)oc23)[C@H](O)C1` [flavopiridol], the “conformational effect on the A-loop (DEER)” value [4] was “increased the Aloop-out1 subpopulation”, the “conformational effect on the A-loop (DEER)” value [5] was “promoted the Aloop-out2 subpopulation” and the “conformational effect on the αC-helix (DEER)” value [6] was “population shifts toward the αC-in state”. For the same compound, the “binding cooperativity between inhibitor and cyclin” value [1] was 50 fold.

With `CN(C)C(=O)c1cc2cnc(Nc3ccc(N4CCNCC4)cn3)nc2n1C1CCCC1` [ribociclib] the “binding cooperativity with cyclin (in words)” value [1] was “lacked substantial binding cooperativity with cyclin” and the “effect on the Aloop-in/out equilibrium (FRET)” value [1] was “did not promote the Aloop-out state”.

For `Nc1ncnc2c1ncn2[C@@H]1O[C@H](COP(=O)(O)OP(=O)(O)O)[C@@H](O)[C@H]1O` [ADP], the “conformational effect on the A-loop (DEER)” value ([4]; monomeric Cdk2, inhibitor 250 µM) was “promoted the Aloop-out state”.
